# Assay results reported in paper PMC10368370, “Development of o-aminobenzamide salt derivatives for improving water solubility and anti-undifferentiated gastric cancer” (Frontiers in Pharmacology, 2023).
# Read-outs that look alike come from different tables or passages of the source.
# Legend:
# HGC-27 xenograft = test: HGC-27 tumor xenograft model; type: in vivo, BALB/c nude mice; settings: p.o., bid, 14 days, HGC-27 xenograft
# Procedure: 4-week-old male BALB/c nude mice weighing 18g–22 g were injected with 100 μL HGC-27 cells (2 × 10^6 cells) to establish an undifferentiated gastric cancer model.
# (A) Tumor volumes plotted as mean ± SEM. (B) Mice weight curve during treatment plotted as mean ± SD. (C,D) Tumor weight and size on the final day.
# [1] = Solubility in aqueous solution (pure water, normal saline); type: physicochemical
# MGC-803 = system: MGC-803; set-up: method as in Feng et al., 2022; settings: MGC-803, previous work; ref Feng et al., 2022; cited from earlier work
# MDA-MB-231 = test: MTT cytotoxicity / anti-proliferation assay; type: cell-based; settings: Homo sapiens, MDA-MB-231, 72 h, MDA-MB-231, MTT, read-out: IC50, cancer cell viability
# GES-1 = system: GES-1; set-up: method as in Feng et al., 2022; settings: GES-1 normal cells, previous work; ref Feng et al., 2022; cited from earlier work
# HCT-116 = test: MTT cytotoxicity / anti-proliferation assay; type: cell-based; settings: Homo sapiens, HCT-116, 72 h, HCT-116, MTT, read-out: IC50, cancer cell viability
# HCC-1937 = test: MTT cytotoxicity / anti-proliferation assay; type: cell-based; settings: Homo sapiens, HCC1937, 72 h, HCC-1937, MTT, read-out: IC50, cancer cell viability
# MCF-7 = test: MTT cytotoxicity / anti-proliferation assay; type: cell-based; settings: Homo sapiens, MCF7, 72 h, MCF-7, MTT, read-out: IC50, cancer cell viability
# SK-Hep-1 = test: MTT cytotoxicity / anti-proliferation assay; type: cell-based; settings: SK-Hep-1, MTT, 72 h; read-out: IC50, cancer cell viability
# HGC-27 cells = test: MTT cytotoxicity / anti-proliferation assay; type: cell-based, human; settings: Homo sapiens, HGC-27, 72 h, HGC-27, MTT, read-out: IC50, cancer cell viability
# Procedure: Undifferentiated human gastric cancer cell line (HGC-27) was purchased from the China Center for Type Collection (CCTCC, China) and used with 10% Foetal Bovine Serum (FBS, Gemini, Bio-Product, CA, United States), 1% penicillin streptomycin (PS) and 89% 1,640 medium ([…]) for culture. All cells were incubated at 37°C in a constant temperature incubator containing 95% air and 5% CO2.
# To evaluate the cytotoxicity of F8 and related organic salts on HGC-27 cells, MTT analysis was performed. HGC-27 cells were digested with trypsin, then cells were spread into 96-well plates at a density of 3,000 cells/well and incubated for 12–16 h. After 12 h, the medium in 96-well plates was replaced with compounds containing 1, 0.5, 0.25, 0.125, 0.062, 0.0312 μM for another 72 h. Three days later, 20 μL MTT solution was added and incubated at 37°C for 4 h. Then 150 μL DMSO solution was added to each well after the fluid was removed, and the absorbance was detected by microplate reader. The compound dissolved in DMSO was added to the cell medium so that the final concentration of DMSO was less than 0.4%.
# Infinite proliferation is one of the most prominent features of cancer cells, therefore, we evaluated the anti-proliferation activity of compounds F8 and related organic salts against human gastric carcinoma HGC-27 via MTT assay.
# HuH7 = test: MTT cytotoxicity / anti-proliferation assay; type: cell-based; settings: 72 h, read-out: IC50, cancer cell viability
# HCC-1806 = test: MTT cytotoxicity / anti-proliferation assay; type: cell-based; settings: Homo sapiens, HCC1806, 72 h, HCC-1806, MTT, read-out: IC50, cancer cell viability
# AGS = system: AGS; set-up: method as in Feng et al., 2022; settings: previous work, ref Feng et al., 2022; cited from earlier work
# MDA-MB-468 = test: MTT cytotoxicity / anti-proliferation assay; type: cell-based; settings: Homo sapiens, MDA-MB-468, 72 h, MDA-MB-468, MTT, read-out: IC50, cancer cell viability
# Pharmacokinetic study = type: in vivo, SD rats; settings: SD rats; for Cmax: read-out: Cmax
# Procedure: 7–8-week Male SD rats weighing 180–220 g were allowed for this experiment. The rats were fasted 12 h except for water. The solution was administered to rats by intravenous injection of 10% ethanol +10% solutol as solvent and intragastric injection of 5% castor oil +5% solutol as solvent. The dose concentration was 8 mg/mL for intravenous injection and 10 mg/mL for gavage.
# Twelve male SD rats were divided into 4 groups with 3 rats in each group. Group 1 was F8-intravenous injection group, the dose was 20 mg/kg; Group 2 was F8- intragastric administration group, the dose was 100 mg/kg; Group 3 was F8·2HCl-intragastric administration group, the dose was 100 mg/kg. Blank blood was collected before administration, and blood was collected at predetermined time points after administration:
# Intravenous injection group: before administration, 2 min, 5 min, 15 min, 30 min, 1 h, 2 h, 4 h, 8 h, 12 h, 24 h. Intragastric administration group: Before administration, 5 min, 15 min, 30 min, 1 h, 2 h, 4 h, 6 h, 8 h, 12 h, 24 h. About 0.5 mL of blood was collected and placed in an EDTA-K2 tube at […]. The plasma was centrifuged and stored at −80°C. The samples were detected by liquid-mass spectrometry analysis system. The chromatographic column used was ODS-C18 (4.6 × 50 mm, 3 µm). The chromatographic conditions were as follows: Mobile phase A is aqueous phase, […] (including 0.1% formic acid); Mobile phase B is organic, 95% acetonitrile (containing 0.1% formic acid). Flow rate of 0.4 mL/min, column temperature: room temperature, according to the drug plasma concentration data, calculated pharmacokinetic parameters using DAS 2.0 software.
# After oral administration, drugs need to go through four stages, namely, absorption, distribution, metabolism and excretion. However, the changes in solubility of drugs after salting only affect the absorption stage. Since absorption is accompanied by a dissolution process, the water solubility and dissolution rate of drugs are the main factors that determine their absorption, and then affect their oral bioavailability ([Elder et al., 2013]). Under the stimulation of cell activity and increased solubility, pharmacokinetic experiments were carried out to understand the drug exposure and provide a basis for further druggability of compound F8. In this study, compound F8 and F8·2HCl were administered in two different ways: tail vein injection (20 mg/kg) and gavage (100 mg/kg), and pharmacokinetic parameters were measured in Sprague-Dawley (SD) rats (Figures 3, 4).
# [2] = male, Sprague-Dawley, rat, plasma, iv, 20 mg/kg
# [3] = male, Sprague-Dawley, rat, plasma, oral, 100 mg/kg, 100 mg/kg, route ip (methods: intragastric)
smiles,measurement,setting,value
"N#CC1(c2ccc(NC(=O)c3cccnc3NCc3ccncc3)cc2)CCCC1 [Apatinib, apatinib, reference compound]",tumor growth inhibition (TGI),HGC-27 xenograft; 37.5 mg/kg,50.0%
O=C(NCc1ccc(NC(=O)c2cc(F)ccc2N2CCCC2)cc1)OCc1cccnc1 [F8],solubility in normal saline,"[1]; normal saline, compared with pure water",not much different from pure water
same,Solubility in aqueous solution,[1]; pure water,less than 1 mg/mL
same,IC50,MGC-803,10.7 µM
same,IC50,MDA-MB-231,53.8 ± 0.59 µM
same,IC50,GES-1,> 100 µM
same,tumor growth inhibition (TGI),HGC-27 xenograft; 75 mg/kg,52.8%
same,IC50,HCT-116,4.89 ± 0.35 µM
same,IC50,HCC-1937,47.05 ± 0.07 µM
same,IC50,MCF-7,43.5 ± 0.36 µM
same,IC50,SK-Hep-1,1.65 ± 0.15 µM
same,IC50,HGC-27 cells,0.26 ± 0.03 µM
same,IC50,HuH7,2.35 ± 0.29 µM
same,IC50,HCC-1806,21.1 ± 0.74 µM
same,IC50,AGS,23.3 µM
same,IC50,MDA-MB-468,1.45 ± 0.12 µM
same,Tmax,"Pharmacokinetic study; 100 mg/kg, route ip (methods: intragastric), 100 mg/kg",0.19 h
same,peak plasma concentration,"Pharmacokinetic study; oral administration 100 mg/kg, 100 mg/kg",0.4 µg/mL
same,AUC(0-inf),Pharmacokinetic study; [2],6990 ng·h/mL
same,half-life,Pharmacokinetic study; [2],3.09 h
same,Cmax,"Pharmacokinetic study; male, Sprague-Dawley, rat, plasma, iv, 20 mg/kg, 20 mg/kg, iv",12100 ng/mL
same,Tmax,"Pharmacokinetic study; male, Sprague-Dawley, rat, plasma, iv, 20 mg/kg, 20 mg/kg, iv, read-out: Tmax",0.03 h
same,AUC(0-inf),Pharmacokinetic study; [3],1130 ng·h/mL
same,half-life,Pharmacokinetic study; [3],2.66 h
same,Cmax,Pharmacokinetic study; [3],400 ng/mL
same,bioavailability,"Pharmacokinetic study; male, Sprague-Dawley, rat, plasma, oral, 100 mg/kg, oral 100 mg/kg vs iv 20 mg/kg, read-out: bioavailability",3.23%
same,AUC(0-t),"Pharmacokinetic study; male, Sprague-Dawley, rat, plasma, po, 100 mg/kg, area under the concentration-time curve (AUC0-t), oral administration 100 mg/kg, heading: area under the concentration-time curve",~1130 ng·h/mL
